These results are taken from patent US10093630B2, “Pyrazole compounds and methods of making and using same” (ABIDE THERAPEUTICS, INC., priority 2014, dated 2018).

Holding throughout (assay): In vitro competitive activity-based protein profiling (gel-based, FP-Rh or HT-01 probe)
Common to all, as to assay type: biochemical

One assay deals with T1, ABHD6 (Mus musculus, UniProt Q8R2Y0).
T1 construct: Proteomes (mouse brain membrane fraction or cell lysates); from tissue; host or cells: mouse brain membrane fraction (or cell lysates, not specified)
T1 sequence (Q8R2Y0 1-336): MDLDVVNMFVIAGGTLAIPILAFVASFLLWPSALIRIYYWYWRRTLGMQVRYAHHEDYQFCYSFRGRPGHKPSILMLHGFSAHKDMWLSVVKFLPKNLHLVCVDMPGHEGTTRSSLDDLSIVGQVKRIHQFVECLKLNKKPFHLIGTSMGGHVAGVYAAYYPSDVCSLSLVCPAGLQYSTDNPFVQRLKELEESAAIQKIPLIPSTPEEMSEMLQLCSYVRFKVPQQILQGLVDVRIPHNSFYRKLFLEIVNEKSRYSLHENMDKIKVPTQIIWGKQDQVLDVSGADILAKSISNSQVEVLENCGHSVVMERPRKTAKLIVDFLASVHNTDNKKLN
Particulars: for inhibition at 1 µM: 1 μM inhibitor, read-out: % Inhibition at 1 μM, C = ABHD6; for inhibition at 10 µM: 10 μM inhibitor, read-out: % Inhibition at 10 μM, C = ABHD6; for IC50: mouse brain membrane fraction or cell lysates, 30 min preincubation at 37° C., read-out: Mouse (IC50 value, nM) ABHD6. Put shortly:
(§1)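 Read-out: fluorescent band intensity on SDS-PAGE gels, reporting remaining serine hydrolase activity. Before that, proteome (mouse brain membranes or cell lysates, 1.0 mg/mL) saw a range of inhibitor concentrations for 30 min at 37° C, followed by 30 min probe labelling (FP-Rh or HT-01).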

The target of the next assay is T2, PLA2G7 (Mus musculus, UniProt Q60963).
T2 construct: Proteomes (mouse brain membrane fraction or cell lysates); from tissue; host or cells: mouse brain membrane fraction (or cell lysates, not specified)
T2 sequence (Q60963 22-440): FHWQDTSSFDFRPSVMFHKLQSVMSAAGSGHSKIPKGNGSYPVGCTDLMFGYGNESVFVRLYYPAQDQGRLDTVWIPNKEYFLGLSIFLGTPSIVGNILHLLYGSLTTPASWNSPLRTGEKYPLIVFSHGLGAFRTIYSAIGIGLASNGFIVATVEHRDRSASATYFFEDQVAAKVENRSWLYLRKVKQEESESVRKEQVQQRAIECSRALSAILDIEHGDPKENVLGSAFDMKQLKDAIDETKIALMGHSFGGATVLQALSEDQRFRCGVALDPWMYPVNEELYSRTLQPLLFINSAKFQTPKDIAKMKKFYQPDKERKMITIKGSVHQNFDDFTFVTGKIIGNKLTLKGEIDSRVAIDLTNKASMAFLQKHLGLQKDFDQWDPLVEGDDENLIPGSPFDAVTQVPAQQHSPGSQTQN
The conditions noted are these: for inhibition at 1 µM: 1 μM inhibitor, read-out: % Inhibition at 1 μM, D = PLA2G7; for inhibition at 10 µM: 10 μM inhibitor, read-out: % Inhibition at 10 μM, D = PLA2G7. Summed up:
as §1

Another assay concerns the target T3, FAAH (Mus musculus, UniProt O08914).
T3 construct: Proteomes (mouse brain membrane fraction or cell lysates); from tissue; host or cells: mouse brain membrane fraction (or cell lysates, not specified)
T3 sequence (O08914 1-579): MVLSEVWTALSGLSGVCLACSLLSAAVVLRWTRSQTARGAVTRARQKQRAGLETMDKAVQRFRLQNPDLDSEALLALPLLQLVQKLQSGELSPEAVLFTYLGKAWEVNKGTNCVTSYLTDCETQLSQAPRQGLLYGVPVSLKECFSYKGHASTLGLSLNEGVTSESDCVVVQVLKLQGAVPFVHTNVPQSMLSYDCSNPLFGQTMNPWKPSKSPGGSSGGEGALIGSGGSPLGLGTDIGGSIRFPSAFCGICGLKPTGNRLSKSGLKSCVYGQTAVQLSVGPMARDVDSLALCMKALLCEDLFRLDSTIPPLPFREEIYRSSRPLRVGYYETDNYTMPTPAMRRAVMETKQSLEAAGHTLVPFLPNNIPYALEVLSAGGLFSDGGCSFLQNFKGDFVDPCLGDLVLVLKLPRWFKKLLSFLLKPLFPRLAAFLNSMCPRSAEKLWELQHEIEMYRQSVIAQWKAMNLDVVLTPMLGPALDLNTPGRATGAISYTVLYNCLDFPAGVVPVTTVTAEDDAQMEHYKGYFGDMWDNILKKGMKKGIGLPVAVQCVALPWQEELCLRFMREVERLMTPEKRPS
The conditions noted are these: for inhibition at 1 µM: 1 μM inhibitor, read-out: % Inhibition at 1 μM, B = FAAH; for inhibition at 10 µM: 10 μM inhibitor, read-out: % Inhibition at 10 μM, B = FAAH; for IC50: mouse brain membrane fraction or cell lysates, 30 min preincubation at 37° C., read-out: Mouse (IC50 value, nM) FAAH. Put shortly: as §1

For a further assay, the target named is T4, MAGL (Mus musculus, UniProt O35678).
T4 construct: Proteomes (mouse brain membrane fraction or cell lysates); from tissue; host or cells: mouse brain membrane fraction (or cell lysates, not specified)
T4 sequence (O35678 1-303): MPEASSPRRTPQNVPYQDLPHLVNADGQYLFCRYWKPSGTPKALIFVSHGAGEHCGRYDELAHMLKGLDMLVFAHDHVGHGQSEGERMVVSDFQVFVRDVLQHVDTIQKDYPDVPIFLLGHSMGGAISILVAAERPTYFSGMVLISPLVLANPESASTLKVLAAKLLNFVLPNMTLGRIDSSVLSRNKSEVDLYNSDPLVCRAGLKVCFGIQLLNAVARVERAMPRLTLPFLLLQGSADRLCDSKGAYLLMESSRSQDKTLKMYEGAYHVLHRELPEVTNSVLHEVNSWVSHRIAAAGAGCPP
The conditions noted are these: for inhibition at 1 µM: 1 μM inhibitor; for inhibition at 10 µM: 10 μM inhibitor; for IC50: mouse brain membrane fraction or cell lysates, 30 min preincubation at 37° C., read-out: Mouse (IC50 value, nM) MAGL. Summed up: as §1

Bounds are passed on as bounds.

One may read the inhibition as the drop in the measured response relative to a control, in per cent. Broadly, the IC50 is the point on the concentration scale where inhibition reaches its midpoint. On to `COc1ccccc1-c1ccc(-c2cnn(C(=O)N3CCCC3)c2)cc1` [Example 107, (4-(2′-Methoxy-[1,1′-biphenyl]-4-yl)-1H-pyrazol-1-yl)(pyrrolidin-1-yl)methanone], for which the inhibition at 1 µM on ABHD6 is more than 75%; on PLA2G7 it was less than 25%; at FAAH, less than 25%; at MAGL, less than 25%. In addition, the inhibition at 10 µM on ABHD6 is more than 75%; at PLA2G7, 25 to 75%; at FAAH, less than 25%; at MAGL, more than 75%. Besides, the IC50 at ABHD6 is 100 to 1000 nM.
In the case of `O=C(N1CCN(Cc2c(N3CCCC3)cccc2C(F)(F)F)CC1)n1cc(C(F)(F)F)cn1` [Example 110, (4-(2-(Pyrrolidin-1-yl)-6-(trifluoromethyl)benzyl)piperazin-1-yl)(4-(trifluoromethyl)-1H-pyrazol-1-yl)methanone], the inhibition at 1 µM on ABHD6 is more than 75%; on PLA2G7, more than 75%; on FAAH, less than 25%; on MAGL, more than 75%. In addition, the inhibition at 10 µM at ABHD6, on PLA2G7, at FAAH and at MAGL was more than 75% each time. The IC50 at ABHD6 was less than 100 nM; at FAAH, more than 1000 nM; on MAGL, less than 100 nM.
Turning to `CC(C)c1cnn(C(=O)N2CCN(Cc3c(N4CCCC4)cccc3C(F)(F)F)CC2)c1` [Example 112, (4-Isopropyl-1H-pyrazol-1-yl)(4-(2-(pyrrolidin-1-yl)-6-(trifluoromethyl)benzyl)piperazin-1-yl)methanone], the inhibition at 1 µM is more than 75% at ABHD6, less than 25% at PLA2G7, less than 25% at FAAH and less than 25% on MAGL. Moreover, the inhibition at 10 µM on ABHD6 is more than 75%; at PLA2G7 it was more than 75%; on FAAH, less than 25%; on MAGL it was more than 75%. Further, the IC50 at ABHD6 was in the range of 100 to 1000 nM.
Consider `O=C(N1CCN(Cc2ccc(C(F)(F)F)cc2N2CCCC2)CC1)n1cc(-c2ccccc2C(F)(F)F)cn1` [Example 115, (4-(2-(Pyrrolidin-1-yl)-4-(trifluoromethyl)benzyl)piperazin-1-yl)(4-(2-(trifluoromethyl)phenyl)-1H-pyrazol-1-yl)methanone], for which the inhibition at 1 µM was more than 75% on ABHD6, 25 to 75% at PLA2G7, less than 25% on FAAH and less than 25% at MAGL. Further, the inhibition at 10 µM was 25 to 75% on ABHD6, more than 75% on PLA2G7, 25 to 75% on FAAH and 25 to 75% on MAGL. Further, the IC50 on ABHD6 is 100 to 1000 nM.
`O=C(N1CCN(Cc2ccc(C(F)(F)F)cc2N2CCCC2)CC1)n1cc(-c2ccc(C(F)(F)F)cc2)cn1` [Example 116, (4-(2-(Pyrrolidin-1-yl)-4-(trifluoromethyl)benzyl)piperazin-1-yl)(4-(4-(trifluoromethyl)phenyl)-1H-pyrazol-1-yl)methanone]: the inhibition at 1 µM is more than 75% at ABHD6, less than 25% at FAAH and 25 to 75% at MAGL. Also, the inhibition at 10 µM at ABHD6 was more than 75%; at PLA2G7, more than 75%; on FAAH, less than 25%; at MAGL it was more than 75%. Also, the IC50 on ABHD6 is more than 1000 nM.
`Cc1ccccc1-c1cnn(C(=O)N2CCN(C(c3ccc(Cl)cc3)c3ccc(Cl)cc3)CC2)c1` [Example 122, (4-(Bis(4-chlorophenyl)methyl)piperazin-1-yl)(4-(o-tolyl)-1H-pyrazol-1-yl)methanone]: the figures for the inhibition at 1 µM at ABHD6 and at PLA2G7 were less than 25% and 25 to 75%, respectively. For the same compound, the inhibition at 10 µM was more than 75% at ABHD6, more than 75% at PLA2G7, less than 25% at FAAH and 25 to 75% on MAGL.
On to `O=C(N1CCN(C(c2ccc(Cl)cc2)c2ccc(Cl)cc2)CC1)n1cc(-c2ccccc2C(F)(F)F)cn1` [Example 123, (4-(Bis(4-chlorophenyl)methyl)piperazin-1-yl)(4-(2-(trifluoromethyl)phenyl)-1H-pyrazol-1-yl)methanone], for which the inhibition at 1 µM at ABHD6 was 25 to 75%; on PLA2G7 it was less than 25%. Further, the inhibition at 10 µM was more than 75% on ABHD6, 25 to 75% on PLA2G7, less than 25% at FAAH and 25 to 75% at MAGL.
Consider `O=C(N1CCN(C(c2ccc(Cl)cc2)c2ccc(Cl)cc2)CC1)n1cc(-c2ccc(C(F)(F)F)cc2)cn1` [Example 124, (4-(Bis(4-chlorophenyl)methyl)piperazin-1-yl)(4-(4-(trifluoromethyl)phenyl)-1H-pyrazol-1-yl)methanone], for which the inhibition at 1 µM at ABHD6 was more than 75%; on PLA2G7 it was 25 to 75%. Also, the inhibition at 10 µM was more than 75% at ABHD6, more than 75% at PLA2G7, less than 25% on FAAH and 25 to 75% on MAGL.
Consider `CCN(Cc1ccccc1OC)C(=O)n1cc(Cl)cn1` [Example 127, 4-Chloro-N-ethyl-N-(2-methoxybenzyl)-1H-pyrazole-1-carboxamide], for which the inhibition at 1 µM on ABHD6, at PLA2G7, on FAAH and on MAGL was less than 25% throughout. In addition, the inhibition at 10 µM on ABHD6 was more than 75%; on PLA2G7 it was less than 25%; at FAAH it was more than 75%; on MAGL it was more than 75%.
As to `CCN(Cc1cccc(OC)c1)C(=O)n1cc(Cl)cn1` [Example 128, 4-Chloro-N-ethyl-N-(3-methoxybenzyl)-1H-pyrazole-1-carboxamide], the inhibition at 10 µM was more than 75% on ABHD6, less than 25% at PLA2G7, more than 75% on FAAH and more than 75% on MAGL. The IC50 was more than 1000 nM at ABHD6, 100 to 1000 nM at FAAH and more than 1000 nM on MAGL.
On to `CCN(Cc1ccc(OC)cc1)C(=O)n1cc(Cl)cn1` [Example 129, 4-Chloro-N-ethyl-N-(4-methoxybenzyl)-1H-pyrazole-1-carboxamide], for which the inhibition at 1 µM was less than 25% at ABHD6, less than 25% on PLA2G7, more than 75% on FAAH and less than 25% at MAGL. Also, the inhibition at 10 µM on ABHD6 is 25 to 75%; at PLA2G7 it was less than 25%; at FAAH, more than 75%; at MAGL it was more than 75%. Further, the IC50 at ABHD6 is more than 1000 nM; at FAAH it was 100 to 1000 nM; on MAGL, more than 1000 nM.
